Reference: US7709482B2, “Polycyclic heteroaryl substituted triazoles useful as Axl inhibitors” (Rigel Pharmaceuticals, Inc., priority 2006, dated 2010)

Target: T1, Axl (Homo sapiens, UniProt P30530)
T1 construct: endogenous in cells; host or cells: HeLa cells
T1 sequence (P30530 26-894): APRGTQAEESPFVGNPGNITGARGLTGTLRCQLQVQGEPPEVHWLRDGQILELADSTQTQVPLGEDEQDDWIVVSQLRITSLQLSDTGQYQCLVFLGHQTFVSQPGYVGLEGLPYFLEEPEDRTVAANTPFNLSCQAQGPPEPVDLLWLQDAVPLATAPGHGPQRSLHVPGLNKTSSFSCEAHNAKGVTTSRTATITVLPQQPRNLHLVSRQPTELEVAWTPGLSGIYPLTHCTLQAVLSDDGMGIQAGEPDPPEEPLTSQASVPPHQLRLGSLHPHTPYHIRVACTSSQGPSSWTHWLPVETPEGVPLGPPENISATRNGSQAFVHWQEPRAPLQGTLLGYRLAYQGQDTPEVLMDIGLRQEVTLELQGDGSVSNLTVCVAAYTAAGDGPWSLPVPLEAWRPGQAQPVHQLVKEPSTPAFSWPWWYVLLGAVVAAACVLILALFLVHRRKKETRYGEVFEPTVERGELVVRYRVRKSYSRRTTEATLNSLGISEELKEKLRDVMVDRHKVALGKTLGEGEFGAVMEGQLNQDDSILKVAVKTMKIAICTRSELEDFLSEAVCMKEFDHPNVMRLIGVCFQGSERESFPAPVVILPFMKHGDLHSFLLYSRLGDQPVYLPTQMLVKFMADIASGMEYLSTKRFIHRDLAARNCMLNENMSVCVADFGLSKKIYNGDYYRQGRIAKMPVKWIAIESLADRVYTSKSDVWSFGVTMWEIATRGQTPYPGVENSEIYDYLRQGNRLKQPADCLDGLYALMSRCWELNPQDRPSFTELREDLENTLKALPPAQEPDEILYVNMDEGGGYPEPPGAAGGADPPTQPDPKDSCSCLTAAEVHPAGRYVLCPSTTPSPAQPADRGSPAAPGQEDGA
Experiment: Phospho-Akt In-Cell Western Assay (inhibition of Axl activity after Axl-antibody cross-linking)
Assay type: cell-based
Settings: Hela cells, phospho-Akt chemiluminescence normalized to relative cell number; compounds of formula (Ia), Table 1; read-out: IC50
Procedure: The compounds of the invention were tested in the following assay for their ability to inhibit Axl activity.
Phospho-Akt In-Cell Western Assay
• Cell culture plate: 96 well assay plate (Corning 3610), white, clear bottom, tissue-culture treated. • Cells: Hela cells. • Starvation medium: For Axl stimulation: 0.5% FCS (fetal calf serum) in DMEM, plus Axl/Fc (extracellular domain of AXL fused to immunoglobulin Fc region) (R&D, 154-AL) 500 ng/mL. • For EGF (epidermal growth factor) stimulation: 0.5% FCS in DMEM (Dulbecco's modified Eagles medium). • Poly-L-Lysine 0.01% solution (the working solution): […], dilute In PBS (phosphate buffered saline). • Axl antibody cross-linking: • 1st: Mouse anti-Axl (R&D, MAB154). • 2nd: Biotin-SP-conjugated AffiniPure goat anti-mouse IgG (H+ L) (Jackson ImmunoResearch #115-065-003). • Fixing buffer: 4% formaldehyde in PBS. • Wash buffer: 0.1% TritonX-100 in PBS. • Quenching buffer: 3% H2O2, 0.1% Azide in wash buffer, Azide and hydrogen peroxide (H2O2) are added fresh. • Blocking buffer: 5% BSA in TBST (tris buffered saline plus 0.1% Tween 20). • Primary antibody: Rabbit anti-human Phospho-Akt antibody (Cell Signaling 9271): 1×250 diluted in blocking buffer. • Secondary antibody: HRP (horse radish peroxidase)-conjugated Goat anti-Rabbit secondary, stock solution: Jackson ImmunoResearch (Goat anti-Rabbit HRP, #111-035-144) 1:1 diluted in glycerol, store at −20° C. The working solution: 1×2000 dilution of stock in blocking buffer. • Chemiluminescent working solution (Pierce, 37030): SuperSignal ELISA (enzyme linked immunosorbant assay) Pico Chemiluminescent substrate. • Crystal Violet solution: Stock: 2.5% Crystal violet in methanol, filtered and kept at ambient temperature. The working solution: dilute the stock 1:20 with PBS immediately before use. • 10% SDS: working solution: 5% SDS (sodium dodecylsulfate), diluted in PBS Methods: Day 1:
A 96 well TC (tissue culture treated) plate was coated with 10 μg/mL poly-L-Lysine at 37° C. for 30 min, washed twice with PBS, and air-dried for 5 minutes before cells were added. Hela cells were seeded at 10,000 cells/well and the cells were starved in 100 μL starvation medium containing Axl/Fc for 24 hrs.
The cells were pre-treated with test compounds by adding 100 μL of 2× test compound to the starvation medium on the cells. The cells were incubated at 37° C. for 1 hr before stimulation.
The resulting mix was warmed to 37° C. 50 μL of 5×Axl 1st/2nd of antibody cluster was added to the cells and the cells were incubated at 37° C. for 5 min.
After 5 minutes stimulation, the plate was flicked to remove medium and the plate was tapped onto paper towels. Formaldehyde (4.0% in PBS, 100 μL) was added to fix the cells and the cells were incubated at ambient temperature for 20 min without shaking.
The cells were washed with a plate washer buffer to remove the formaldehyde solution. The plate was flicked to removed excess wash buffer and tapped onto paper towels. Quenching buffer (100 μL) was added to each well and the cells were incubated at ambient temperature for 20 minutes without shaking.
The cells were washed with a plate washer buffer to remove the quenching buffer. Blocking buffer (100 μL) was added and the cells were incubated at ambient temperature for at least an hour with gentle shaking.
The cells were washed with a plate washer buffer and diluted primary antibody (50 μL) was added to each well (blocking buffer was added to the negative control wells instead). The plates were incubated overnight at 4° C. with gentle shaking.
The wash buffer was removed, diluted secondary antibody (100 μL) was added, and the cells were incubated at ambient temperature for 1 hour with gentle shaking. During the incubation, the chemiluminescent reagent was brought to ambient temperature.
The secondary antibody was removed by washing the cells 1× with wash buffer, 1× with PBS by plate washer.

| IC50 [µM] | Compound |
| --- | --- |
| < 1 | CCN(CC)C1CCN(c2ccc(Nc3nc(N)n(-c4ncnc5c4CCCc4ccccc4-5)n3)cc2F)CC1 [Compound 39, 1-(6,7-dihydro-5H-benzo[6,7]cyclohepta[1,2-d]pyrimidin-4-yl)-N^3-(3-fluoro-4-(4-(diethylamino)piperidin-1-yl)phenyl)-1H-1,2,4-triazole-3,5-diamine] |
| 1 to 10 | CN1CCN(c2ccc(Nc3nc(N)n(-c4ncc5c(n4)-c4ccccc4CCC5)n3)cc2)CC1 [Compound 40, 1-(6,7-dihydro-5H-benzo[6,7]cyclohepta[1,2-d]pyrimidin-2-yl)-N^3-(4-(N-methylpiperazin-1-yl)phenyl)-1H-1,2,4-triazole-3,5-diamine] |
| 1 to 10 | CN1CCN(c2ccc(Nc3nc(N)n(-c4cc5c(nn4)-c4ccccc4N(C)CC5)n3)cc2)CC1 [Compound 41, 1-(7-methyl-6,7-dihydro-5H-benzo[2,3]azepino[4,5-c]pyridazin-3-yl)-N^3-(4-(N-methylpiperazin-1-yl)phenyl)-1H-1,2,4-triazole-3,5-diamine] |
| < 1 | CN1CCc2cc(-n3nc(Nc4ccc(OCCN5CCCC5)c(F)c4)nc3N)nnc2-c2ccccc21 [Compound 42, 1-(7-methyl-6,7-dihydro-5H-benzo[2,3]azepino[4,5-c]pyridazin-3-yl)-N^3-(3-fluoro-4-(2-(pyrrolidin-1-yl)ethoxy)phenyl)-1H-1,2,4-triazole-3,5-diamine] |
| 1 to 10 | CN1CCc2cc(-n3nc(Nc4ccc(N5CCN(C6CCCCC6)CC5)c(F)c4)nc3N)nnc2-c2ccccc21 [Compound 43, 1-(7-methyl-6,7-dihydro-5H-benzo[2,3]azepino[4,5-c]pyridazin-3-yl)-N^3-(3-fluoro-4-(4-cyclohexylpiperazinyl)phenyl)-1H-1,2,4-triazole-3,5-diamine] |
| < 1 | Nc1nc(Nc2ccc(OCCN3CCCC3)c(F)c2)nn1-c1ncc2c(n1)-c1ccccc1CCC2 [Compound 44, 1-(6,7-dihydro-5H-benzo[6,7]cyclohepta[1,2-d]pyrimidin-2-yl)-N^3-(3-fluoro-4-(2-(pyrrolidin-1-yl)ethoxy)phenyl)-1H-1,2,4-triazole-3,5-diamine] |
| < 1 | Nc1nc(Nc2ccc(N3CCN(C4CCCCC4)CC3)c(F)c2)nn1-c1ncc2c(n1)-c1ccccc1CCC2 [Compound 45, 1-(6,7-dihydro-5H-benzo[6,7]cyclohepta[1,2-d]pyrimidin-2-yl)-N^3-(3-fluoro-4-(4-cyclohexylpiperazinyl)phenyl)-1H-1,2,4-triazole-3,5-diamine] |
| < 1 | Nc1nc(Nc2ccc(N3CCN([C@H]4CC5CCC4C5)CC3)cc2)nn1-c1ncc2c(n1)-c1ccccc1CCC2 (stereo partly drawn) [Compound 46, 1-(6,7-dihydro-5H-benzo[6,7]cyclohepta[1,2-d]pyrimidin-2-yl)-N^3-(4-(4-(2S)-bicyclo[2.2.1]heptan-2-yl)-piperazinylphenyl)-1H-1,2,4-triazole-3,5-diamine] |
| 1 to 10 | Nc1nc(Nc2ccc(OCCN3CCCC3)c(Cl)c2)nn1-c1cc2c(nn1)-c1ccccc1CCC2 [Compound 47, 1-(6,7-dihydro-5H-benzo[6,7]cyclohepta[1,2-c]pyridazin-3-yl)-N^3-(3-chloro-4-(2-(pyrrolidin-1-yl)ethoxy)phenyl)-1H-1,2,4-triazole-3,5-diamine] |
| 1 to 10 | Nc1nc(Nc2ccc(OCCN3CCCC3)c(F)c2)nn1-c1cc2c(nn1)-c1ccccc1CCC2 [Compound 48, 1-(6,7-dihydro-5H-benzo[6,7]cyclohepta[1,2-c]pyridazin-3-yl)-N^3-(3-fluoro-4-(2-(pyrrolidin-1-yl)ethoxy)phenyl)-1H-1,2,4-triazole-3,5-diamine] |
| 1 to 10 | Nc1nc(Nc2ccc(OCCN3CCCC3)cc2)nn1C1=Nc2ccccc2Sc2ccccc21 [Compound 49, 1-((Z)-dibenzo[b,f][1,4]thiazepin-11-yl)-N^3-(4-(2-(pyrrolidin-1-yl)ethoxy)phenyl)-1H-1,2,4-triazole-3,5-diamine] |
| 1 to 10 | CN1CCN(c2ccc(Nc3nc(N)n(C4=Nc5ccccc5Sc5ccccc54)n3)cc2)CC1 [Compound 50, 1-((Z)-dibenzo[b,f][1,4]thiazepin-11-yl)-N^3-(4-(N-methylpiperazin-1-yl)phenyl)-1H-1,2,4-triazole-3,5-diamine] |
| 1 to 10 | CCN(CC)C1CCN(c2ccc(Nc3nc(N)n(C4=Nc5ccccc5Sc5ccccc54)n3)cc2F)CC1 [Compound 51, 1-((Z)-dibenzo[b,f][1,4]thiazepin-11-yl)-N^3-(3-fluoro-4-(4-diethylaminopiperidin-1-yl)phenyl)-1H-1,2,4-triazole-3,5-diamine] |
| < 1 | COc1ccc2c(c1)CCCc1cc(-n3nc(Nc4ccc(N5CCC(N6CCCC6)CC5)c(F)c4)nc3N)nnc1-2 [Compound 52, 1-(6,7-dihydro-5H-9-methoxybenzo[6,7]cyclo-hepta[1,2-c]pyridazin-3-yl)-N^3-(3-fluoro-4-(4-(pyrrolidin-1-yl)piperidin-1-yl)phenyl)-1H-1,2,4-triazole-3,5-diamine] |
| < 1 | Nc1nc(Nc2ccc(N3CCC(N4CCCC4)CC3)c(F)c2)nn1-c1cc2c(nn1)-c1cc(F)ccc1CCC2 [Compound 53, 1-(6,7-dihydro-5H-10-fluorobenzo[6,7]cyclo-hepta[1,2-c]pyridazin-3-yl)-N^3-(3-fluoro-4-(4-(pyrrolidin-1-yl)piperidin-1-yl)phenyl)-1H-1,2,4-triazole-3,5-diamine] |
| < 1 | Nc1nc(Nc2ccc(OCCN3CCCC3)c(F)c2)nn1-c1cc2c(nn1)-c1cc(F)ccc1CCC2 [Compound 54, 1-(6,7-dihydro-5H-10-fluorobenzo[6,7]cyclo-hepta[1,2-c]pyridazin-3-yl)-N^3-(3-fluoro-4-(2-(pyrrolidin-1-yl)ethoxy)phenyl)-1H-1,2,4-triazole-3,5-diamine] |
| 10 to 20 | Nc1nc(Nc2ccc(N3CCN(C4CCCCC4)CC3)c(F)c2)nn1-c1cc2c(nn1)-c1cc(F)ccc1CCC2 [Compound 55, 1-(6,7-dihydro-5H-10-fluorobenzo[6,7]cyclo-hepta[1,2-c]pyridazin-3-yl)-N^3-(3-fluoro-4-(4-(cyclohexyl)piperazin-1-yl)phenyl)-1H-1,2,4-triazole-3,5-diamine] |
